Assay results as given in the supplement of paper PMC10307832.

What was measured:
Experiment in all cases: relative viability (nuclei count vs DMSO), 5 days (fraction); higher = more cells survive
KN-93 + Bortezomib = compound: CN(C/C=C/C1=CC=C(C=C1)Cl)CC2=CC=CC=C2N(CCO)S(=O)(=O)C3=CC=C(C=C3)OC [KN-93] + CC(C)C[C@H](NC(=O)[C@H](Cc1ccccc1)NC(=O)c1cnccn1)B(O)O [Bortezomib] (partner 0.002 µM)
How it was run: (§1)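 After 5 days of treatment, lung cancer cells in 1536-well plates were fixed and stained in a single step (final 0.05% Triton X-100, 1% formaldehyde, 1 ug/ml Hoechst) and their nuclei counted on 4× images. Treatment had been applied by pin tool the day after seeding as one drug alone or as a fixed anchor-drug dose with five library-drug doses (not always all listed) in √10 steps. Relative viability is the nuclei count of treated wells divided by that of vehicle wells, and values are medians of duplicate plates.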

KN-93 + Phenformin = compound: CN(C/C=C/C1=CC=C(C=C1)Cl)CC2=CC=CC=C2N(CCO)S(=O)(=O)C3=CC=C(C=C3)OC [KN-93] + N=C(N)NC(=N)NCCc1ccccc1 [Phenformin] (partner 250 µM)
How it was run: as §1

KN-93 + Pemetrexed = compound: CN(C/C=C/C1=CC=C(C=C1)Cl)CC2=CC=CC=C2N(CCO)S(=O)(=O)C3=CC=C(C=C3)OC [KN-93] + Nc1nc2[nH]cc(CCc3ccc(C(=O)N[C@@H](CCC(=O)O)C(=O)O)cc3)c2c(=O)[nH]1 [Pemetrexed] (partner 0.2 µM)
How it was run: as §1

KN-93 + Linsitinib = compound: CN(C/C=C/C1=CC=C(C=C1)Cl)CC2=CC=CC=C2N(CCO)S(=O)(=O)C3=CC=C(C=C3)OC [KN-93] + C[C@]1(O)C[C@@H](c2nc(-c3ccc4ccc(-c5ccccc5)nc4c3)c3c(N)nccn32)C1 [Linsitinib] (partner 1 µM)
How it was run: as §1

KN-93 + Tozasertib = compound: CN(C/C=C/C1=CC=C(C=C1)Cl)CC2=CC=CC=C2N(CCO)S(=O)(=O)C3=CC=C(C=C3)OC [KN-93] + Cc1cc(Nc2cc(N3CCN(C)CC3)nc(Sc3ccc(NC(=O)C4CC4)cc3)n2)n[nH]1 [Tozasertib] (partner 0.1 µM)
How it was run: as §1

Cell Line	relative viability (KN-93 + Bortezomib; first compound 0.253 µM)	relative viability (KN-93 + Bortezomib; first compound 2.53 µM)	relative viability (KN-93 + Bortezomib; first compound 8 µM)	relative viability (KN-93 + Phenformin; first compound 0.08 µM)	relative viability (KN-93 + Phenformin; first compound 2.53 µM)	relative viability (KN-93 + Phenformin; first compound 8 µM)	relative viability (KN-93 + Pemetrexed; first compound 0.08 µM)	relative viability (KN-93 + Pemetrexed; first compound 0.253 µM)	relative viability (KN-93 + Pemetrexed; first compound 2.53 µM)	relative viability (KN-93 + Pemetrexed; first compound 8 µM)	relative viability (KN-93 + Linsitinib; first compound 0.253 µM)	relative viability (KN-93 + Linsitinib; first compound 2.53 µM)	relative viability (KN-93 + Linsitinib; first compound 8 µM)	relative viability (KN-93 + Bortezomib; first compound 0.08 µM)	relative viability (KN-93 + Linsitinib; first compound 0.08 µM)	relative viability (KN-93 + Phenformin; first compound 0.253 µM)	relative viability (KN-93 + Tozasertib; first compound 0.08 µM)	relative viability (KN-93 + Tozasertib; first compound 0.253 µM)	relative viability (KN-93 + Tozasertib; first compound 2.53 µM)	relative viability (KN-93 + Tozasertib; first compound 8 µM)
NCI-H1792	0.923	1.04	0.781	0.177	0.25	0.258	0.605	0.909	0.971	0.513	0.573	0.567	0.394							
NCI-H1703	0.302	0.418	0.166									0.976	0.389	0.381	1.14					
ABC-1	0.247	0.287	0.26	0.248	0.248	0.216					0.717	0.727	0.362	0.322	0.889	0.242	0.158	0.157	0.217	0.192
NCI-H1650	0.196	0.208	0.203	0.468	0.571	0.25	0.338	0.427	0.372	0.34				0.218		0.417	0.39	0.339	0.382	0.309
NCI-H1563	0.884	0.778	0.675	0.706	0.647	0.626	0.759	0.822	0.799	0.597	1.2	1.02	0.934	1	1.22	0.633				
NCI-H2170				0.434	0.392	0.402	0.268	0.302	0.276	0.252						0.419	0.755	0.845	0.729	0.454
